pIC50: −log10 of the molar value.
Key:
RL95-2 cells = test: Inhibition of RL95-2 cell proliferation (CellTiter-Glo); type: cell-based; conditions: Homo sapiens; RL95-2 cells (MSI-H), 120 hours
Summary of the method: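 RL95-2 (MSI-H) cells, 500/well in DMEM/F12 with 10% FBS, adhered overnight, then treated 120 h at 37 °C, 5% CO2 with compound at final 1.52-10000 nM. Viability by CellTiter-Glo luminescence. Inhibition relative to 0.1% DMSO control; IC50 from nonlinear regression of log concentration versus inhibition.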

[1] = Pharmacokinetic test in mice after intragastric administration; type: in vivo; conditions: male, mouse, plasma, ICR mice, Oral (10 mg/kg)
Procedure: ICR mice were used as test animals, the plasma concentrations of the control compound HRO761 and the compounds of the present disclosure at different time points after intragastric administration were determined by LC/MS/MS method, and the pharmacokinetic characteristics of the compounds of the present disclosure in mice were studied.
ICR mice, male, 30.8 to 38.0 g, purchased from Vital River Laboratory Animal Technology Co., Ltd.
An appropriate amount of the test compound was weighed, and an appropriate amount of DMA (N,N-dimethylacetamide), 30% Solutol HS15 (30% polyethylene glycol-15 hydroxystearate), and Saline (saline) were added sequentially, the mixture was ultrasonicated and vortex mixed to prepare a 1 mg/mL dosing formulation. The ratio of DMA:30% Solutol HS15:Saline was 5:5:90 (v/v/v).
After overnight fasting, ICR mice in each test compound injection group (9 mice per group) were administered intragastrically (PO, compound dose was 10 mg/kg, administration volume was 10 mL/kg), and food was given 4 hours after administration.
About 0.1 mL of blood was collected via the orbital cavity before administration and at 0.25 h, 0.5 h, 1 h, 2 h, 4 h, 8 h, 10 h, and 24 h after administration, and whole blood samples were placed in anticoagulant tubes containing EDTA-K2. The samples were placed on ice after collection, and plasma was separated by centrifugation (centrifugation conditions: 1500 g, 10 minutes). The collected plasma was stored at -40 to -20 °C before analysis.
The content of the test compound in mouse plasma after intragastric administration was determined by LC-MS/MS.

Molecule `CCc1c(N2CCN(C(=O)c3ncnc(C)c3O)CC2)c(=O)n2nc(-c3cc4ccccc4s3)nc2n1CC(=O)Nc1ccc(C(F)(F)F)cc1Cl` [Example 80, 2-(2-(benzo[b]thiophen-2-yl)-5-ethyl-6-(4-(5-hydroxy-6-methylpyrimidine-4-carbonyl)piperazin-1-yl)-7-oxo-[1,2,4]triazolo[1,5-a]pyrimidin-4(7H)-yl)-N-(2-chloro-4-(trifluoromethyl)phenyl)acet amide] has a pIC50 (RL95-2 cells) of 7.00 to 9.00, an AUC(0-t) ([1]; read-out: Area under curve AUC0-t) of 104 µg·h/mL and a half-life ([1]; read-out: Half-life T1/2 (converted)) of 2.11 h. It also gave a Cmax ([1]; read-out: Plasma concentration Cmax) of 19800 ng/mL.

From patent EP4800015A1, “AZABICYCLO DERIVATIVE AND PREPARATION METHOD THEREFOR, AND USE” (Zhejiang Hisun Pharmaceutical Co., Ltd., priority 2023, dated 2025)
